Test results: the supplement of paper PMC11451515

Tests used:
Experiment in all cases: AUC of viability dose-response curve (% viability x log10 dose units); higher = less sensitive
Conditions in all cases: 48 h
[1] = tested on: NOMO1
Summary of the method: (§1)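 Viability of medium-adapted leukemia cells was measured by CellTiter-Glo One luminescence after 48 h at 37°C with library compounds in DMSO. Doses were 11 threefold steps from 47 μM to 0.79 nM, in 1536-well plates at 500 or 1000 cells/well. Signals were normalised per plate to DMSO and cell-free wells and fitted with a four-parameter log-logistic model on log10 dose. Area under the curve was integrated by trapezoidal rule, with curves exceeding full viability scaled and failed quality-control curves removed.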

[2] = tested on: P12-Ichikawa
Summary of the method: as §1

[3] = tested on: SEM cells
Summary of the method: as §1

[4] = RPMI 5 mM glucose + 10% dialyzed FBS

SMILES	AUC of viability dose-response curve ([1]; HPLM + 10% dialyzed FBS)	AUC of viability dose-response curve ([1]; RPMI 5 mM glucose + 10% FBS)	AUC of viability dose-response curve [1, 4]	AUC of viability dose-response curve ([2]; HPLM + 10% dialyzed FBS)	AUC of viability dose-response curve ([2]; RPMI 5 mM glucose + 10% FBS)	AUC of viability dose-response curve [2, 4]	AUC of viability dose-response curve ([3]; HPLM + 10% dialyzed FBS)	AUC of viability dose-response curve ([3]; RPMI 5 mM glucose + 10% FBS)	AUC of viability dose-response curve [3, 4]
O=C(O)c1cc(O)c2c(c1)C(=O)c1cccc(O)c1C2=O	464	445	466	455	464	443	451	460	464
C[C@H](NC(=O)Cc1cc(F)cc(F)c1)C(=O)N[C@H](C(=O)OC(C)(C)C)c1ccccc1	448	397	432	432	428	390	418	456	415
c1cc(-c2cnn3cc(-c4ccc(OCCN5CCCCC5)cc4)cnc23)ccn1	388	397	394	416	395	406			
CCOC(=O)N1CCN(/[N+]([O-])=N/Oc2cc(O/N=[N+](\[O-])N3CCN(C(=O)OCC)CC3)c([N+](=O)[O-])cc2[N+](=O)[O-])CC1	476	460	463	460	476	450	449	464	474
NC(=O)c1cccc(-c2cc(Nc3ccc(OC(F)(F)F)cc3)ncn2)c1	457	436	428	469	466	460	441	464	423
C[C@]12CC[C@H]3[C@@H](CC(=C)\C4=C\C(=O)\C=C/[C@]34C)[C@@H]1CCC2=O	463	429	444	466	466	461	426	438	437
OC1=CC=C(C=C1)C/2=C/C3=C(OC2)C=C(O)C=C3	368	411	418	354	356	349	355	358	362
Cc1ccc(Nc2cc(-c3cccc(N4C(=O)c5ccccc5C4=O)c3)ncn2)cc1N[S+](C)(=O)[O-]	461	473	469	466	465	474	468	463	468
NCCCC(N)(C(=O)O)C(F)F (configuration not stated)	454	443	461	462	448	449	446	460	461
CC(=O)OC[C@@H]1O[C@H]([C@H](OC(C)=O)[C@@H]1OC(C)=O)N2\C=C/C(=O)NC2=O	429	440	443	461	444	457	448	462	456
CCCCCCNC(=O)N1\C=C(F)/C(=O)NC1=O	451	468	443	458	459	456	466	458	435
CN1CCc2c(c3ccccc3n2Cc2ccc(C(=O)NO)cc2)C1	373	358	397	401	370	377	348	364	310
Cc1cc(Nc2cc(N3CCN(C)CC3)nc(/C=C/c3ccccc3)n2)n[nH]1	340	334	345	320	333	333	264	261	255
O=C(O)CCCCCC(=O)NN=C1CCCC1	433	414	453	467	468	447	456	468	461
Cc1ccc2nc(NCCN)c3ncc(C)n3c2c1	446	422	437	458	455	460	413	440	430
CNc1nc(-c2ccc3c(N)n[nH]c3c2)cc(N2C[C@@H](C(=O)NC3CCCCC3)CC[C@H]2C)n1	350	359	364	395	319	336			
COC1=CC=C(C=C1)/C2=C(O)/C(=O)C3=C(O)C=C(O)C(=C3O2)CC=C(C)C	464	454	464	467	473	468	457	434	467
